The subject of this assay is P. falciparum (NF54 or 3D7 strain). The assay is described as follows: Assay for P. falciparum proliferation in infected human blood cells (SYBR Green). Type of assay: cell-based, Plasmodium falciparum. The following applies: Plasmodium falciparum, Erythrocyte, 72 h, NF54 or 3D7 infected human erythrocytes, 72 hours; read-out: EC50 (nM), inhibitory efficacy in delaying P. falciparum proliferation in infected human blood cells. In short, it runs like this: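 NF54 or 3D7 parasites in O+ human erythrocytes at 2.5% hematocrit and 0.3% parasitemia final, exposed to compounds 72 h at 37 °C under 93% N2/4% CO2/3% O2.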

This passage reports EC50 results from patent publication US20150291598A1 (NOVARTIS AG, priority 2012, published 2015).

With `O=C(c1cn2c(-c3ccc(C(F)(F)F)cc3)cnc2cn1)N1CCc2cc(F)ccc21` [Compound 176, 5-fluoro-1-({3-[4-(trifluoromethyl)phenyl]imidazo[1,2-a]pyrazin-6-yl}carbonyl)-2,3-dihydro-1H-indole], the EC50 is over 10000 nM.

Turning to `CN(C(=O)c1cn2c(-c3ccc(Oc4ccccc4)cc3)cnc2cn1)c1ccc(C#N)cc1` [Compound 177, N-(4-cyanophenyl)-N-methyl-3-(4-phenoxyphenyl)imidazo[1,2-a]pyrazine-6-carboxamide], the EC50 came to 6750 nM.

Take `CN(C(=O)c1cn2c(-c3cnn(Cc4ccccc4)c3)cnc2cn1)c1ccc(C#N)cc1` [Compound 178, 3-(1-benzyl-1H-pyrazol-4-yl)-N-(4-cyanophenyl)-N-methylimidazo[1,2-a]pyrazine-6-carboxamide]: the EC50 came to 6510 nM.

As to `CN(C(=O)c1cn2c(-c3ccc(Cl)cc3C(F)(F)F)cnc2cn1)c1ccc(C#N)cc1` [Compound 179, 3-[4-chloro-2-(trifluoromethyl)phenyl]-N-(4-cyanophenyl)-N-methylimidazo[1,2-a]pyrazine-6-carboxamide], the EC50 was 4400 nM.

As to `CN(C(=O)c1cn2c(-c3ccc(-c4nnn[nH]4)cc3)cnc2cn1)c1ccc(C#N)cc1` [Compound 180, N-(4-cyanophenyl)-N-methyl-3-[4-(1H-1,2,3,4-tetrazol-5-yl)phenyl]imidazo[1,2-a]pyrazine-6-carboxamide], the EC50 came to 4340 nM.

Consider `CN(C(=O)c1cn2c(-c3ccc(N4CCCC4)cc3)cnc2cn1)c1ccc(C#N)cc1` [Compound 181, N-(4-cyanophenyl)-N-methyl-3-[4-(pyrrolidin-1-yl)phenyl]imidazo[1,2-a]pyrazine-6-carboxamide], for which the EC50 stood at 723 nM.

`CN(C(=O)c1cn2c(-c3ccc(-c4ccn[nH]4)cc3)cnc2cn1)c1ccc(C#N)cn1` [Compound 182, N-(5-cyanopyridin-2-yl)-N-methyl-3-[4-(1H-pyrazol-5-yl)phenyl]imidazo[1,2-a]pyrazine-6-carboxamide]: the EC50 stood at 2260 nM.

Take `CN(C(=O)c1cn2c(-c3ccc(C(F)(F)F)cc3)cnc2cn1)c1cccc(Br)c1` [Compound 183, N-(3-bromophenyl)-N-methyl-3-[4-(trifluoromethyl)phenyl]imidazo[1,2-a]pyrazine-6-carboxamide]: the EC50 is 2400 nM.

As to `CN(C(=O)c1cn2c(-c3cncc(S(N)(=O)=O)c3)cnc2cn1)c1ccc(C#N)cc1` [Compound 184, N-(4-cyanophenyl)-N-methyl-3-(5-sulfamoylpyridin-3-yl)imidazo[1,2-a]pyrazine-6-carboxamide], the EC50 was over 10000 nM.

As for `CON(C)C(=O)c1ccc(-c2cnc3cnc(C(=O)N(C)c4ccc(C#N)cc4)cn23)cc1` [Compound 185, N-(4-cyanophenyl)-3-{4-[methoxy(methyl)carbamoyl]phenyl}-N-methylimidazo[1,2-a]pyrazine-6-carboxamide], the EC50 is 7170 nM.

Consider `CN(C(=O)c1cn2c(-c3ccc(CN)cc3)cnc2cn1)c1ccc(C#N)cc1` [Compound 186, 3-[4-(aminomethyl)phenyl]-N-(4-cyanophenyl)-N-methylimidazo[1,2-a]pyrazine-6-carboxamide], for which the EC50 was determined as 9170 nM.

In the case of `CN(C(=O)c1cn2c(-c3ccc(C(F)(F)F)nc3)cnc2cn1)c1ccc(C#N)cc1` [Compound 187, N-(4-cyanophenyl)-N-methyl-3-[6-(trifluoromethyl)pyridin-3-yl]imidazo[1,2-a]pyrazine-6-carboxamide], the EC50 was found to be 1380 nM.

For `CCN(CC)C(=O)c1ccc(-c2cnc3cnc(C(=O)N(C)c4ccc(C#N)cc4)cn23)cc1` [Compound 188, N-(4-cyanophenyl)-3-[4-(diethylcarbamoyl)phenyl]-N-methylimidazo[1,2-a]pyrazine-6-carboxamide], the EC50 is over 10000 nM.

Consider `CN(C(=O)c1cn2c(-c3cnn(C)c3)cnc2cn1)c1ccc(C#N)cc1` [Compound 189, N-(4-cyanophenyl)-N-methyl-3-(1-methyl-1H-pyrazol-4-yl)imidazo[1,2-a]pyrazine-6-carboxamide], for which the EC50 turned out to be 7890 nM.

Take `Cc1cccc(CN(C)C(=O)c2cn3c(-c4ccc(C(F)(F)F)cc4)cnc3cn2)n1` [Compound 190, N-methyl-N-[(6-methylpyridin-2-yl)methyl]-3-[4-(trifluoromethyl)phenyl]imidazo[1,2-a]pyrazine-6-carboxamide]: the EC50 worked out at 6240 nM.

As to `CN(C(=O)c1cn2c(-c3cccc(C#N)c3)cnc2cn1)c1ccc(C#N)cc1` [Compound 191, 3-(3-cyanophenyl)-N-(4-cyanophenyl)-N-methylimidazo[1,2-a]pyrazine-6-carboxamide], the EC50 came to 7730 nM.

For `CN(Cc1ccc(F)cc1)C(=O)c1cn2c(-c3ccc(C(F)(F)F)cc3)cnc2cn1` [Compound 192, N-[(4-fluorophenyl)methyl]-N-methyl-3-[4-(trifluoromethyl)phenyl]imidazo[1,2-a]pyrazine-6-carboxamide], the EC50 is 7390 nM.

On to `CN(C(=O)c1cn2c(-c3ccc(C4CCCN4)cc3)cnc2cn1)c1ccc(C#N)cc1` (stereo not shown) [Compound 193, N-(4-cyanophenyl)-N-methyl-3-[4-(pyrrolidin-2-yl)phenyl]imidazo[1,2-a]pyrazine-6-carboxamide], for which the EC50 is 8590 nM.

For `CN(Cc1cccnc1)C(=O)c1cn2c(-c3ccc(C(F)(F)F)cc3)cnc2cn1` [Compound 194, N-methyl-N-(pyridin-3-ylmethyl)-3-[4-(trifluoromethyl)phenyl]imidazo[1,2-a]pyrazine-6-carboxamide], the EC50 amounted to 6950 nM.

Take `CN(C(=O)c1cn2c(-c3cccnc3)cnc2cn1)c1ccc(C#N)cc1` [Compound 195, N-(4-cyanophenyl)-N-methyl-3-(pyridin-3-yl)imidazo[1,2-a]pyrazine-6-carboxamide]: the EC50 is over 10000 nM.

Regarding `CN(C(=O)c1cn2c(-c3ccc(Cl)cn3)cnc2cn1)c1ccc(C#N)cc1` [Compound 196, 3-(5-chloropyridin-2-yl)-N-(4-cyanophenyl)-N-methylimidazo[1,2-a]pyrazine-6-carboxamide], the EC50 stood at 9350 nM.

As to `CN(C(=O)c1cn2c(-c3ccc(S(=O)(=O)N(C)C)cc3)cnc2cn1)c1ccc(C#N)cc1` [Compound 197, N-(4-cyanophenyl)-3-[4-(dimethylsulfamoyl)phenyl]-N-methylimidazo[1,2-a]pyrazine-6-carboxamide], the EC50 is over 10000 nM.

With `CC1CCN(c2nc(-c3cnc4cnc(C(=O)N(C)c5ccc(C#N)cc5)cn34)cs2)CC1` [Compound 198, N-(4-cyanophenyl)-N-methyl-3-[2-(4-methylpiperidin-1-yl)-1,3-thiazol-4-yl]imidazo[1,2-a]pyrazine-6-carboxamide], the EC50 is over 10000 nM.

Consider `Cc1cccc(-c2cnc3cnc(C(=O)N(C)c4ccc(C#N)cc4)cn23)c1` [Compound 199, N-(4-cyanophenyl)-N-methyl-3-(3-methylphenyl)imidazo[1,2-a]pyrazine-6-carboxamide], for which the EC50 was 7320 nM.

For the compound `CN(C(=O)c1cn2c(-c3cn[nH]c3)cnc2cn1)c1ccc(C#N)cc1` [Compound 200, N-(4-cyanophenyl)-N-methyl-3-(1H-pyrazol-4-yl)imidazo[1,2-a]pyrazine-6-carboxamide], the EC50 was over 10000 nM.

For `CN1CCc2cc(-c3cnc4cnc(C(=O)N(C)c5ccc(C#N)cc5)cn34)ccc21` [Compound 201, N-(4-cyanophenyl)-N-methyl-3-(1-methyl-2,3-dihydro-1H-indol-5-yl)imidazo[1,2-a]pyrazine-6-carboxamide], the EC50 was 1080 nM.

In the case of `CN(C(=O)c1cn2c(-c3ccc4nonc4c3)cnc2cn1)c1ccc(C#N)cc1` [Compound 202, 3-(2,1,3-benzoxadiazol-5-yl)-N-(4-cyanophenyl)-N-methylimidazo[1,2-a]pyrazine-6-carboxamide], the EC50 is over 10000 nM.

For `CN(C(=O)c1cn2c(-c3cnc4c(c3)ncn4C)cnc2cn1)c1ccc(C#N)cc1` [Compound 203, N-(4-cyanophenyl)-N-methyl-3-{3-methyl-3H-imidazo[4,5-b]pyridin-6-yl}imidazo[1,2-a]pyrazine-6-carboxamide], the EC50 is 6490 nM.

For the compound `CN(C(=O)c1cn2c(-c3ccc4c(c3)CC(=O)N4)cnc2cn1)c1ccc(C#N)cc1` [Compound 204, N-(4-cyanophenyl)-N-methyl-3-(2-oxo-2,3-dihydro-1H-indol-5-yl)imidazo[1,2-a]pyrazine-6-carboxamide], the EC50 was 6510 nM.

With `CN(C(=O)c1cn2c(-c3ccc4c(cnn4C)c3)cnc2cn1)c1ccc(S(C)(=O)=O)cc1` [Compound 205, N-(4-methanesulfonylphenyl)-N-methyl-3-(1-methyl-1H-indazol-5-yl)imidazo[1,2-a]pyrazine-6-carboxamide], the EC50 stood at 7450 nM.

On to `CN(C(=O)c1cn2c(-c3ccc(C(F)(F)F)cc3)cnc2cn1)c1ccc(-n2ccc(C(F)(F)F)n2)cc1` [Compound 206, -methyl-N-{4-[3-(trifluoromethyl)-1H-pyrazol-1-yl]phenyl}-3-[4-(trifluoromethyl)phenyl]imidazo[1,2-a]pyrazine-6-carboxamide], for which the EC50 was over 9760 nM.

As to `CN(C)Cc1ccc(-c2cnc3cnc(C(=O)N(C)c4ccc(C#N)cc4)cn23)cc1` [Compound 207, N-(4-cyanophenyl)-3-{4-[(dimethylamino)methyl]phenyl}-N-methylimidazo[1,2-a]pyrazine-6-carboxamide], the EC50 is 4600 nM.

On to `CN(C(=O)c1cn2c(-c3ccc(-c4ccnn4C)cc3)cnc2cn1)c1ccc(C#N)cc1` [Compound 208, N-(4-cyanophenyl)-N-methyl-3-[4-(1-methyl-1H-pyrazol-5-yl)phenyl]imidazo[1,2-a]pyrazine-6-carboxamide], for which the EC50 was 724 nM.

Regarding `CN(C(=O)c1cn2c(-c3ccc(OC(F)F)cc3)cnc2cn1)c1ccc(S(C)(=O)=O)cc1` [Compound 209, 3-[4-(difluoromethoxy)phenyl]-N-(4-methanesulfonylphenyl)-N-methylimidazo[1,2-a]pyrazine-6-carboxamide], the EC50 was 2700 nM.
